According to patent publication US20230398130A1, “METHODS AND COMPOSITIONS FOR DIFFERENTIATING STEM CELLS” (Massachusetts Institute of Technology, priority 2020, published 2023):

Experiments:
ISC-enriched organoids [1] = experiment: Primary screen, 384-well 2.5-D organoid differentiation (ENR+CD, 6 days, Target Selective Inhibitor Library, vs whole-plate median): ATP (CellTiter-Glo 3D, CTG); details: for Dose.FC.CTG (log 2 fold change, ATP) / Dose.FC.CTG (log 2 fold change): vs plate median; for Dose.FC.CTG: FC vs plate median; for SSMD.CTG: strictly standardized mean difference
ISC-enriched organoids [2] = experiment: Primary screen, 384-well 2.5-D organoid differentiation (ENR+CD, 6 days): carbachol-induced lysozyme secretion (LYZ.S); assay type: cell-based, murine; details: for Dose.FC.LYZ.S (log 2 fold change, carbachol-induced lysozyme secretion) / Dose.FC.LYZ.S (log 2 fold change): vs plate median; for Dose.FC.LYZ.S / Z.LYZ.S / SSMD.LYZ.S / Dose.FC.LYZ.S (log 2 fold change): primary screen; for Dose.FC.LYZ.S: FC vs plate median; for Z.LYZ.S: standard z score; for SSMD.LYZ.S: strictly standardized mean difference
Excerpt: (§1) High-throughput screening.

ISC-enriched organoids [3] = experiment: Primary screen, 384-well 2.5-D organoid differentiation (ENR+CD, 6 days): basal lysozyme secretion (LYZ.NS); assay type: cell-based, murine; details: for Dose.FC.LYZ.NS (log 2 fold change, basal lysozyme secretion) / Dose.FC.LYZ.NS (log 2 fold change): vs plate median; for Dose.FC.LYZ.NS: FC vs plate median; for SSMD.LYZ.NS: strictly standardized mean difference
Excerpt: as §1

[4] = Dose 0.08 uM, standard z score of FC
[5] = Dose 0.40 uM, standard z score of FC
[6] = Dose 2.00 uM, standard z score of FC
[7] = Dose 10.00 uM, standard z score of FC
[8] = Dose 0.08 uM, primary screen, standard z score
[9] = Dose 0.40 uM, primary screen, standard z score
[10] = Dose 2.00 uM, primary screen, standard z score
[11] = Dose 10.00 uM, primary screen, standard z score
[12] = primary screen, 1st of the 4 dose lines of the treatment (dose not given)
[13] = primary screen, 2nd of the 4 dose lines of the treatment (dose not given)
[14] = primary screen, 3rd of the 4 dose lines of the treatment (dose not given)
[15] = primary screen, 4th of the 4 dose lines of the treatment (dose not given)
[16] = 1st of the 4 dose lines of the treatment (dose not given)
[17] = 2nd of the 4 dose lines of the treatment (dose not given)
[18] = 3rd of the 4 dose lines of the treatment (dose not given)
[19] = 4th of the 4 dose lines of the treatment (dose not given)

SMILES: COc1cc2ncnc(Nc3ccc(Cl)cc3F)c2cc1OC [ZM 306416]
- Z.CTG (standard z score) (ISC-enriched organoids [1]; dose 0.08 uM): −0.190
- Dose.FC.CTG (log 2 fold change, ATP) (ISC-enriched organoids [1]; dose 0.08 uM): −0.080
- Z.CTG (standard z score) (ISC-enriched organoids [1]; dose 0.40 uM): −1.155
- Dose.FC.CTG (log 2 fold change, ATP) (ISC-enriched organoids [1]; dose 0.40 uM): −0.483
- Z.CTG (standard z score) (ISC-enriched organoids [1]; dose 2.00 uM): −3.135
- Dose.FC.CTG (log 2 fold change, ATP) (ISC-enriched organoids [1]; dose 2.00 uM): −1.312
- Z.CTG (standard z score) (ISC-enriched organoids [1]; dose 10.00 uM): −3.559
- Dose.FC.CTG (log 2 fold change, ATP) (ISC-enriched organoids [1]; dose 10.00 uM): −1.490
- Dose.FC.LYZ.S (log 2 fold change, carbachol-induced lysozyme secretion) (ISC-enriched organoids [2]; dose 0.08 uM): 0.006
- Dose.FC.LYZ.S (log 2 fold change, carbachol-induced lysozyme secretion) (ISC-enriched organoids [2]; dose 0.40 uM): −0.288
- Dose.FC.LYZ.S (log 2 fold change, carbachol-induced lysozyme secretion) (ISC-enriched organoids [2]; dose 2.00 uM): −0.403
- Dose.FC.LYZ.S (log 2 fold change, carbachol-induced lysozyme secretion) (ISC-enriched organoids [2]; dose 10.00 uM): −0.431
- Z.LYZ.NS (standard z score) (ISC-enriched organoids [3]; dose 0.08 uM): 0.912
- Dose.FC.LYZ.NS (log 2 fold change, basal lysozyme secretion) (ISC-enriched organoids [3]; dose 0.08 uM): 0.105
- Z.LYZ.NS (standard z score) (ISC-enriched organoids [3]; dose 0.40 uM): −1.942
- Dose.FC.LYZ.NS (log 2 fold change, basal lysozyme secretion) (ISC-enriched organoids [3]; dose 0.40 uM): −0.223
- Z.LYZ.NS (standard z score) (ISC-enriched organoids [3]; dose 2.00 uM): −2.531
- Dose.FC.LYZ.NS (log 2 fold change, basal lysozyme secretion) (ISC-enriched organoids [3]; dose 2.00 uM): −0.291
- Z.LYZ.NS (standard z score) (ISC-enriched organoids [3]; dose 10.00 uM): −2.395
- Dose.FC.LYZ.NS (log 2 fold change, basal lysozyme secretion) (ISC-enriched organoids [3]; dose 10.00 uM): −0.275

SMILES: O=C(NOCC1CC1)c1ccc(F)c(F)c1Nc1ccc(I)cc1Cl [PD184352 (CI-1040)]
- Dose.FC.CTG (ISC-enriched organoids [1]; Dose 0.08 uM, primary screen): 0.366 log 2 fold change
- Z.CTG (ISC-enriched organoids [1]; [4]): 0.874
- Dose.FC.CTG (ISC-enriched organoids [1]; Dose 0.40 uM, primary screen): 0.261 log 2 fold change
- Z.CTG (ISC-enriched organoids [1]; [5]): 0.624
- Dose.FC.CTG (ISC-enriched organoids [1]; Dose 2.00 uM, primary screen): −0.212 log 2 fold change
- Z.CTG (ISC-enriched organoids [1]; [6]): −0.506
- Dose.FC.CTG (ISC-enriched organoids [1]; Dose 10.00 uM, primary screen): −0.796 log 2 fold change
- Z.CTG (ISC-enriched organoids [1]; [7]): −1.901
- Dose.FC.LYZ.S (ISC-enriched organoids [2]; Dose 0.08 uM): −0.019 log 2 fold change
- Dose.FC.LYZ.S (ISC-enriched organoids [2]; Dose 0.40 uM): −0.047 log 2 fold change
- Dose.FC.LYZ.S (ISC-enriched organoids [2]; Dose 2.00 uM): −0.178 log 2 fold change
- Dose.FC.LYZ.S (ISC-enriched organoids [2]; Dose 10.00 uM): −0.239 log 2 fold change
- Dose.FC.LYZ.NS (ISC-enriched organoids [3]; Dose 0.08 uM, primary screen): −0.019 log 2 fold change
- Z.LYZ.NS (ISC-enriched organoids [3]; [4]): −0.162
- Dose.FC.LYZ.NS (ISC-enriched organoids [3]; Dose 0.40 uM, primary screen): −0.053 log 2 fold change
- Z.LYZ.NS (ISC-enriched organoids [3]; [5]): −0.458
- Dose.FC.LYZ.NS (ISC-enriched organoids [3]; Dose 2.00 uM, primary screen): −0.135 log 2 fold change
- Z.LYZ.NS (ISC-enriched organoids [3]; [6]): −1.176
- Dose.FC.LYZ.NS (ISC-enriched organoids [3]; Dose 10.00 uM, primary screen): −0.116 log 2 fold change
- Z.LYZ.NS (ISC-enriched organoids [3]; [7]): −1.011

SMILES: COc1cc(-n2c(=S)[nH]c3ccccc3c2=O)c(Cl)cc1Cl [Mdivi-1]
- Dose.FC.CTG (ISC-enriched organoids [1]; Dose 0.08 uM, primary screen): 0.008 log 2 fold change
- Z.CTG (ISC-enriched organoids [1]; [8]): 0.019
- Dose.FC.CTG (ISC-enriched organoids [1]; Dose 0.40 uM, primary screen): −0.031 log 2 fold change
- Z.CTG (ISC-enriched organoids [1]; [9]): −0.074
- Dose.FC.CTG (ISC-enriched organoids [1]; Dose 2.00 uM, primary screen): −0.112 log 2 fold change
- Z.CTG (ISC-enriched organoids [1]; [10]): −0.267
- Dose.FC.CTG (ISC-enriched organoids [1]; Dose 10.00 uM, primary screen): −0.527 log 2 fold change
- Z.CTG (ISC-enriched organoids [1]; [11]): −1.259
- SSMD.CTG (ISC-enriched organoids [1]; [12]): 0.026
- SSMD.CTG (ISC-enriched organoids [1]; [13]): −0.072
- SSMD.CTG (ISC-enriched organoids [1]; [14]): −0.356
- SSMD.CTG (ISC-enriched organoids [1]; [15]): −1.838
- Dose.FC.LYZ.S (ISC-enriched organoids [2]; Dose 0.08 uM): 0.079 log 2 fold change
- Dose.FC.LYZ.S (ISC-enriched organoids [2]; Dose 0.40 uM): 0.030 log 2 fold change
- Dose.FC.LYZ.S (ISC-enriched organoids [2]; Dose 2.00 uM): −0.048 log 2 fold change
- Dose.FC.LYZ.S (ISC-enriched organoids [2]; Dose 10.00 uM): −0.411 log 2 fold change
- Z.LYZ.S (ISC-enriched organoids [2]; [16]): 0.511
- Z.LYZ.S (ISC-enriched organoids [2]; [17]): 0.196
- Z.LYZ.S (ISC-enriched organoids [2]; [18]): −0.310
- Z.LYZ.S (ISC-enriched organoids [2]; [19]): −2.655
- SSMD.LYZ.S (ISC-enriched organoids [2]; [16]): 0.520
- SSMD.LYZ.S (ISC-enriched organoids [2]; [17]): 0.152
- SSMD.LYZ.S (ISC-enriched organoids [2]; [18]): −0.196
- SSMD.LYZ.S (ISC-enriched organoids [2]; [19]): −2.328
- Dose.FC.LYZ.NS (ISC-enriched organoids [3]; Dose 0.08 uM, primary screen): 0.177 log 2 fold change
- Z.LYZ.NS (ISC-enriched organoids [3]; [8]): 1.537
- Dose.FC.LYZ.NS (ISC-enriched organoids [3]; Dose 0.40 uM, primary screen): 0.156 log 2 fold change
- Z.LYZ.NS (ISC-enriched organoids [3]; [9]): 1.358
- Dose.FC.LYZ.NS (ISC-enriched organoids [3]; Dose 2.00 uM, primary screen): −0.022 log 2 fold change
- Z.LYZ.NS (ISC-enriched organoids [3]; [10]): −0.194
- Dose.FC.LYZ.NS (ISC-enriched organoids [3]; Dose 10.00 uM, primary screen): −0.268 log 2 fold change
- Z.LYZ.NS (ISC-enriched organoids [3]; [11]): −2.333
- SSMD.LYZ.NS (ISC-enriched organoids [3]; [12]): 0.715
- SSMD.LYZ.NS (ISC-enriched organoids [3]; [13]): 0.481
- SSMD.LYZ.NS (ISC-enriched organoids [3]; [14]): −0.093
- SSMD.LYZ.NS (ISC-enriched organoids [3]; [15]): −1.749

SMILES: CNC(=O)c1ccccc1Nc1nc(Nc2ccc(N3CCOCC3)cc2OC)ncc1Cl [TAE226 (NVP-TAE226)]
- Z.CTG (standard z score) (ISC-enriched organoids [1]; Dose 0.08 uM, primary screen): −1.127
- Dose.FC.CTG (log 2 fold change) (ISC-enriched organoids [1]; Dose 0.08 uM, primary screen): −0.472
- Z.CTG (standard z score) (ISC-enriched organoids [1]; Dose 0.40 uM, primary screen): −2.689
- Dose.FC.CTG (log 2 fold change) (ISC-enriched organoids [1]; Dose 0.40 uM, primary screen): −1.126
- Z.CTG (standard z score) (ISC-enriched organoids [1]; Dose 2.00 uM, primary screen): −3.068
- Dose.FC.CTG (log 2 fold change) (ISC-enriched organoids [1]; Dose 2.00 uM, primary screen): −1.284
- Z.CTG (standard z score) (ISC-enriched organoids [1]; Dose 10.00 uM, primary screen): −2.363
- Dose.FC.CTG (log 2 fold change) (ISC-enriched organoids [1]; Dose 10.00 uM, primary screen): −0.989
- Dose.FC.LYZ.S (log 2 fold change) (ISC-enriched organoids [2]; Dose 0.08 uM): −0.333
- Dose.FC.LYZ.S (log 2 fold change) (ISC-enriched organoids [2]; Dose 0.40 uM): −0.376
- Dose.FC.LYZ.S (log 2 fold change) (ISC-enriched organoids [2]; Dose 2.00 uM): −0.400
- Dose.FC.LYZ.S (log 2 fold change) (ISC-enriched organoids [2]; Dose 10.00 uM): −0.426
- Z.LYZ.NS (standard z score) (ISC-enriched organoids [3]; Dose 0.08 uM, primary screen): −2.226
- Dose.FC.LYZ.NS (log 2 fold change) (ISC-enriched organoids [3]; Dose 0.08 uM, primary screen): −0.256
- Z.LYZ.NS (standard z score) (ISC-enriched organoids [3]; Dose 0.40 uM, primary screen): −2.650
- Dose.FC.LYZ.NS (log 2 fold change) (ISC-enriched organoids [3]; Dose 0.40 uM, primary screen): −0.304
- Z.LYZ.NS (standard z score) (ISC-enriched organoids [3]; Dose 2.00 uM, primary screen): −2.813
- Dose.FC.LYZ.NS (log 2 fold change) (ISC-enriched organoids [3]; Dose 2.00 uM, primary screen): −0.323
- Z.LYZ.NS (standard z score) (ISC-enriched organoids [3]; Dose 10.00 uM, primary screen): −2.545
- Dose.FC.LYZ.NS (log 2 fold change) (ISC-enriched organoids [3]; Dose 10.00 uM, primary screen): −0.292
